The numbers were not newly measured in paper PMC9721426, “Novel piperine-carboximidamide hybrids: design, synthesis, and antiproliferative activity via a multi-targeted inhibitory pathway” (Journal of Enzyme Inhibition and Medicinal Chemistry, 2022), which cites them from elsewhere.

Usually IC50 stands for the concentration that inhibits the measured activity by half. What is called GI50 is the concentration giving 50% growth inhibition.

One series has as its system p38α. Also on record: method as in earlier work. To be noted: cited from earlier work.
In the next series the test system is BRAF^V600E. Details: method as in earlier work. To be noted: cited from earlier work.
For a further series, the system named is four cancer cell lines. Details: method as in PMID 35667253. To be noted: read-out: GI50 against the tested four cancer cell lines; cited from earlier work.
For another series, the target named is T1, EGFR (Homo sapiens, UniProt P00533).
T1 construct: cytoplasmic domain (EGFR -CD, amino acids 645–1186); His6 (N); made in house; host or cells: Sf-9 insect cells (baculovirus, pBlueBacHis2B / pFASTBacHTc)
T1 sequence (P00533 669-1210): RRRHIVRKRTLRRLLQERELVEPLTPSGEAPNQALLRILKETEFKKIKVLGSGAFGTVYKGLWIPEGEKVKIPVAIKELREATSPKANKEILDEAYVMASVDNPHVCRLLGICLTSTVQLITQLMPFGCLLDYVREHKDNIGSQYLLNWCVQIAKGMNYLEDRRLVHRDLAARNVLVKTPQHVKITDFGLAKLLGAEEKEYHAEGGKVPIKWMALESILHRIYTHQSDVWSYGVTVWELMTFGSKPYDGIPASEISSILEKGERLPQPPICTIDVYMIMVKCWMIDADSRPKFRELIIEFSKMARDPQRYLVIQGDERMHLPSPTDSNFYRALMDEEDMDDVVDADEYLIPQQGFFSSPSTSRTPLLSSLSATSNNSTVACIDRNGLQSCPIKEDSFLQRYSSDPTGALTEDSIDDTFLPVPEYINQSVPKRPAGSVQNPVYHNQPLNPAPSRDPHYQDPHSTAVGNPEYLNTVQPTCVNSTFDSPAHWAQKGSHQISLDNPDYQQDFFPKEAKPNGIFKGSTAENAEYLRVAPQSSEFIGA
Details: method as in PMID 35667253. The conditions noted are these: cited from earlier work.

Another series relates to c-Met. Also on record: method as in PMID 35667253. To be noted: cited from earlier work.
The next series concerns CDK2. Also on record: method as in PMID 35667253. The conditions noted are these: cited from earlier work.

As to `CCCCCCn1c(-c2ccc(C(=O)O/N=C(\N)c3cccc4c3OCO4)cc2)nc(-c2ccccc2)c1-c1ccccc1` [Compound 4], the concentration for half-maximal inhibition (IC50) is 190 nM in the series with p38α and 330 nM in the series with BRAF^V600E.
Turning to `COc1cc(OC)cc(/C(N)=N/OC(=O)c2ccc3cn[nH]c3c2)c1` [Compound 5], the GI50 with four cancer cell lines was 770 nM. Moreover, the half-maximal inhibitory concentration (IC50) on EGFR is 89 nM; in the series on c-Met, 4.1 nM; in the series on CDK2, 14 nM.
